Measured values from patent publication US4826845A, “3(2H)-pyridazinones and pharmaceutical compositions thereof” (Richter Gedeon Vegyeszeti Gyar T.R., priority 1985, dated 1989).
Structures can show the parent of a compound that is named as a salt. Where two headings read alike, the source gives them in different places. Blank lines part the entries; values can stand above or below the molecule they belong to.

Columns and labels:
anaesthetized cats = experiment: Measurement of the hypotensive effect on anaesthetized cats (i.v. screening); assay type: in vivo, cat; settings: for Mean arterial pressure decrease: anaesthetized cats; for blood pressure lowering action (in words): intravenous, summary of Table 1
Procedure: A tube was introduced into the trachea of cats anaesthetized by the intraperitoneal (i.p.) administration of 35 mg/kg of sodium pentobarbital whereby the spontaneous breathing was supported. On the one side of the animals, the femoral artery and vein were exposed and a polyethylene cannula was introduced in both vessels each. The substances to be tested were administered through the venous cannula. The mean arterial blood pressure was measured by connecting the arterial cannula with a Statham P 23 Db pressure transducer and electromanometer.
As a first screening dose, 5 mg/kg of the compounds to be tested were intravenously (i.v.) administered.

[1] = tested on: pre- and postsynaptic alpha receptors; experiment: Action on the pre- and postsynaptic adrenergic alpha receptors on the stimulated mouse vas deferens; assay type: cell-based; settings: concentration 10^-7 mole
Procedure: The method of Hughes et al. [Brit. J. Phamacol. 51, pp. 139-140P (1975)] was used. The preparations suspended in a modified Krebs solution at 31° C. were excited by the field stimulation method [rectangular paired impulses with 1 msec interval, supramaximal potential (70 to 75 V=8 to 9 V/cm) and 100 msec impulse interval, pairs repeated in each 10 sec]. After stimulation, norepinephrine (NE) was dropped into the organ bath and a dose-response curve was taken up. Thus, the effect of both the endogenous norepinephrine liberated by stimulation and the exogenous norepinephrine could be studied before and after adding the substance to be tested.

[2] = tested on: adrenergic receptor-mediated calcium channel; experiment: Calcium-antagonism on isolated portal vein: adrenergic receptor-mediated calcium channel; assay type: cell-based; settings: rat portal vein, 1×10^-5 mole norepinephrine, 37° C.; read-out: Inhibition of the calcium channel, adrenergic receptor-mediated, IC50
Procedure: (§1) The calcium-antagonism of the compounds of the invention was studied on an isolated vessel preparation based on the work of M. Fiol de Cuneo et al. [Arch. Int. Pharmacodyn.
(§2) Male CFY rats with a body-weight of 150 to 200 g were bled by decapitation and the portal vein was immediately prepared starting from the hepatic portal. The vessel was longitudinally incised, bound to a transducer registering the contractions and incubated under a tension of 1 g at 37° C. in a calcium-free Krebs-Ringer bicarbonate solution aerated with carbogen. After an equilibration lasting for 30 minutes, the functioning of the receptor-mediated and the K^+ -depolarisation-mediated calcium channels, respectively, were investigated.
(§3) All measurements were carried out at 37° C. while bubbling through carbogen.

[3] = target: T1, potential-mediated calcium channel (Rattus norvegicus, UniProt P22002); experiment: Calcium-antagonism on isolated portal vein: potential-mediated calcium channel; assay type: cell-based
T1 construct: from tissue; host or cells: isolated rat portal vein
Procedure: as §1, §2
For investigating the potential-mediated calcium channel, the vein placed in the calcium-free Krebs-Ringer solution was washed by adding and then by removing 80 millimoles of potassium chloride while maintaining the isotania until no contraction appeared on repeatedly adding potassium chloride.
as §3

conscious SH rats [4] = experiment: Antihypertensive effect on conscious, spontaneously hypertensive (SH) rats after oral administration; assay type: in vivo, rat
From the text: The systolic blood pressure was indirectly measured by the tail-cuff method. The compounds to be tested were introduced orally (p.o.) to the animals. The blood pressure measurements were made by using a 5-channel automatized equipment.

[5] = tested on: pressor (blood pressure increasing) effect of epinephrine; experiment: Inhibition of the pressor effect of epinephrine; settings: in vivo
anaesthetized dogs = experiment: Hypotensive and heart rate effects on anaesthetized dogs after intravenous or intraduodenal administration; assay type: in vivo, Beagle dog
Procedure: (§4) Beagle dogs of both sexes were anaesthetized by the intravenous administration of 40 mg/kg of sodium pentobarbital. A cannula was introduced to the femoral artery and vein each on one side for the intravenous administration of the compounds to be tested as well as for measuring the blood pressure.
In an other series of these experiments, the substances were administered through a duodenal tube. Similarly to the experiments carried out on cats, the systemic arterial blood pressure was measured by using an electromanometer and the cardiotachometer was triggered by the heart rate wave sign. […]

conscious SH rats [6] = experiment: Antihypertensive effect on conscious SH rats after acute oral treatment; assay type: in vivo, rat; settings: SH rats
From the text: (§5) These experiments were accomplished on conscious spontaneously hypertensive (SH) and renally hypertensive rats.
(§6) The systolic blood pressure and heart rate of the animals were indirectly measured by using the tail-cuff method by means of a 5- channel automatized equipment.

[7] = tested on: conscious renal hypertensive rats; experiment: Antihypertensive effect on conscious renal hypertensive rats after acute oral treatment; assay type: in vivo, rat; settings: 1.25 mg/kg p.o.
From the text: as §5, §6

[8] = tested on: postsynaptic alpha1 receptor; experiment: Kinetic analysis on rabbit aorta strip preparation: postsynaptic alpha1 receptor antagonism; assay type: cell-based
Procedure: Male rabbits with a body-weight of 3 to 3.5 kg were used for these experiments. […] A dose response curve was plotted by using norepinephrine and a dose selected from the steepest interval of the curve was added repeatedly to the bath until obtaining equal responses. Then, the compound to be tested was added and after 5 minutes, the dose series of norepinephrine was repeated. The extent of the inhibition was expressed as percentage.

renal artery = experiment: Renal arterial vascular resistance in anaesthetized dogs; assay type: in vivo, Beagle dog; settings: 1.0 mg/kg intraduodenal
Procedure: as §4
In an other series of these experiments, the substances were administered through a duodenal tube. Similarly to the experiments carried out on cats, the systemic arterial blood pressure was measured by using an electromanometer and the cardiotachometer was triggered by the heart rate wave sign.
The renal artery on one side was exposed retroperitoneally and fitted with an electromagnetic flow-meter head for measuring the blood flow of the renal arterial vascular bed and for determining the local vascular resistance.

[9] = rat portal vein, 80 millimoles KCl, 37° C., read-out: Inhibition of the calcium channel, potential-mediated, IC50

T1 sequence (P22002 whole entry): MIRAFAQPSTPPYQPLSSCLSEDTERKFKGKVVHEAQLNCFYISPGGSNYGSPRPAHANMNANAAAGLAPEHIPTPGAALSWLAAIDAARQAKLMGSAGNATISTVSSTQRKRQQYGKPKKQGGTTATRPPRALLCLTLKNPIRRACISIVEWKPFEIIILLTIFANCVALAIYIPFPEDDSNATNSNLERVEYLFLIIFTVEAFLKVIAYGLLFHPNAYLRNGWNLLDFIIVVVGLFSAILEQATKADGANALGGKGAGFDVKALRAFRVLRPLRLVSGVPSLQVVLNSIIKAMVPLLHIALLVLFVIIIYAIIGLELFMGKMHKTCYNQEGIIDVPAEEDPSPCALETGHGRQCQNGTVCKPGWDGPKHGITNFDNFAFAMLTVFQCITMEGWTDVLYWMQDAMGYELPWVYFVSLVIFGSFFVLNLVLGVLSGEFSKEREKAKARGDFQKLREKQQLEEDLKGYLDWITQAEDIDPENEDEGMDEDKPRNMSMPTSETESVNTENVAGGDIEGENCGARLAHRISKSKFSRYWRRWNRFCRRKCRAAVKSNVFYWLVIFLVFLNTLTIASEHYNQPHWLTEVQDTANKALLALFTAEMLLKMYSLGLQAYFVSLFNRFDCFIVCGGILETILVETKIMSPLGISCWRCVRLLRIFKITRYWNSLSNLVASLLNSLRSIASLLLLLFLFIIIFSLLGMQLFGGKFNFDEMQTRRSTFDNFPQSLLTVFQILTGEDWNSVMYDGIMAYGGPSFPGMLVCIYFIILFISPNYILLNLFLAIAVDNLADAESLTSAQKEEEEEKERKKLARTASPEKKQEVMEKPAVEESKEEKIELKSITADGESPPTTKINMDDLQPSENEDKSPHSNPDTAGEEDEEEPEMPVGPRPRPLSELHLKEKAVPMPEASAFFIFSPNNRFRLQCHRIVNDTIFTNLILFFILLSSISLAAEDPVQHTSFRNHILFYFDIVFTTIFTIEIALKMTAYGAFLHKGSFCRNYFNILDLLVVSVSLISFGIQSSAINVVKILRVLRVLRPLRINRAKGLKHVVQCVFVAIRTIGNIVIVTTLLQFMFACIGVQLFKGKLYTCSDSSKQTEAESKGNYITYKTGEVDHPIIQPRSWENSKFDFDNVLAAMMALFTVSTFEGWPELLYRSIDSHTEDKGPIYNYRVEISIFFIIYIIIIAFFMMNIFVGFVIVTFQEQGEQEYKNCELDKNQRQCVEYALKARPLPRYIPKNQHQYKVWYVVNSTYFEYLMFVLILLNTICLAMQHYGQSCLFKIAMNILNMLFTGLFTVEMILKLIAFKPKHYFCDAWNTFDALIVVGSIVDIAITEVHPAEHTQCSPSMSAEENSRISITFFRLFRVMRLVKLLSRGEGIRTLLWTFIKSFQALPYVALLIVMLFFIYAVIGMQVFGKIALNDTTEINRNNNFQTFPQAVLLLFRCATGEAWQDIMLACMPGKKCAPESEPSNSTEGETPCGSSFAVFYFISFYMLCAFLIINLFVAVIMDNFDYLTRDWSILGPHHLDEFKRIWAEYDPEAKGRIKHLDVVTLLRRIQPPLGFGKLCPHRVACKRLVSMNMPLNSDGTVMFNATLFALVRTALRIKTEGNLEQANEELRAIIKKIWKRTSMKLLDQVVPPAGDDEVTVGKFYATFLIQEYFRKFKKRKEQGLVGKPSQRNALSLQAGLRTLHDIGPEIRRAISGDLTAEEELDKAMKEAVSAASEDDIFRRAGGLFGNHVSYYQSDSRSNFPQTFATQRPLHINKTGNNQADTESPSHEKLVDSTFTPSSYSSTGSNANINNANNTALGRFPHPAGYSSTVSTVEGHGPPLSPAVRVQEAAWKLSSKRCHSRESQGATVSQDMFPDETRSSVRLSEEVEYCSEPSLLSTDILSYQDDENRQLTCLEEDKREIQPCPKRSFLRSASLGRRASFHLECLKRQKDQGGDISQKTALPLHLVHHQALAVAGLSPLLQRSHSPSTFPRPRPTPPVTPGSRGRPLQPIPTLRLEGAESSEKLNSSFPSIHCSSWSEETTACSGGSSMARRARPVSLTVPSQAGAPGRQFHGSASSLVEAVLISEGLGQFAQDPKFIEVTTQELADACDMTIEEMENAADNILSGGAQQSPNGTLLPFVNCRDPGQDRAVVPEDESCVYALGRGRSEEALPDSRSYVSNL
T1 sequence (P54290 25-944 partner limits assumed): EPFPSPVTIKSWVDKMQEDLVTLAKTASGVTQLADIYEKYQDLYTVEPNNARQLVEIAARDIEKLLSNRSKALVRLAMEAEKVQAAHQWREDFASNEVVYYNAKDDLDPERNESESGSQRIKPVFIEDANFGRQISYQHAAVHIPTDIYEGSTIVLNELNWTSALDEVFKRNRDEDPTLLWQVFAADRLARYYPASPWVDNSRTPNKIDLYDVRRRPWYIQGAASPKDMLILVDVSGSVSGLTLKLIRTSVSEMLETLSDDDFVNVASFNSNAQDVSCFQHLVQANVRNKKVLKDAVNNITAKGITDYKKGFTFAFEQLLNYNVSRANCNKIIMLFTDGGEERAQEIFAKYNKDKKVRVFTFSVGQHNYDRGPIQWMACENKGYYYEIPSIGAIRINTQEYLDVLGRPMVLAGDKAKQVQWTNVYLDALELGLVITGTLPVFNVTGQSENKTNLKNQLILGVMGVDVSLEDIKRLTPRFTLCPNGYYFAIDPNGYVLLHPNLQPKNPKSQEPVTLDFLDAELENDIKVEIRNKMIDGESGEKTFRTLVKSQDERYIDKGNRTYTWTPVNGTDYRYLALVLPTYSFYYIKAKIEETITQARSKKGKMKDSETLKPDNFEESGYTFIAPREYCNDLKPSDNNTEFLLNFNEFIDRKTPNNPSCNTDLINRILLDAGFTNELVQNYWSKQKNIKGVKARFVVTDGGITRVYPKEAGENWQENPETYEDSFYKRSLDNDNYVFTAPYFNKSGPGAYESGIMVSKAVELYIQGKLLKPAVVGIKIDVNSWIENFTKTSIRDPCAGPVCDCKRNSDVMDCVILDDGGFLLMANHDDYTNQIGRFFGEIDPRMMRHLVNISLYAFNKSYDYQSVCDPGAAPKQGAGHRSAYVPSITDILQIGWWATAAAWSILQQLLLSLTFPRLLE
T1 sequence (P54290 945-1091 partner limits assumed): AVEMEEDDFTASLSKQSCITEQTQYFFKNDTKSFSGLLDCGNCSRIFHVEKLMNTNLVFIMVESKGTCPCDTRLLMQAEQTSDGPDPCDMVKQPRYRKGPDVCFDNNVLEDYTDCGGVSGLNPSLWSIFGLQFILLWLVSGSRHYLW

- IC50 [2]: 4 µM
- IC50 [3, 9]: 10 µM
SMILES: O=c1ccc(Cl)nn1CCCNCC1COc2ccccc2O1 (centres unmarked) [Example 2, 2-[3-(benzo[1,4]dioxan-2-yl-methylamino)-1-propyl]-6-chloro-3(2H)-pyridazinone hydrochloride]
- Mean arterial pressure decrease (anaesthetized cats; 1.0 mg/kg i.v.): -90 Hgmm
- blood pressure lowering action (in words) (anaesthetized cats): particularly expressed
- Inhibition of the stimulation [1]: 0%

- IC50 [2]: 0.1 µM
- IC50 [3, 9]: 0.2 µM
SMILES: O=c1ccc(Cl)nn1CCCNCCOc1ccccc1 [Example 4]
- Mean arterial pressure decrease (anaesthetized cats; 5.0 mg/kg i.v.): -70 Hgmm
- blood pressure lowering action (in words) (anaesthetized cats): particularly expressed
- Decrease in the systolic blood pressure (conscious SH rats [4]; 50 mg/kg p.o.): -33%

- IC50 [2]: 20 µM
- IC50 [3, 9]: 50 µM
SMILES: O=c1cccnn1CCCNCCOc1ccccc1 [Example 5]
- inhibition of the pressor effect of epinephrine (in words) [5]: significant inhibition
- Mean arterial pressure decrease (anaesthetized cats; 5.0 mg/kg i.v.): -100 Hgmm
- blood pressure lowering action (in words) (anaesthetized cats): particularly expressed
- Decrease in the systolic blood pressure (conscious SH rats [4]; 10 mg/kg p.o.): -45%
- Decrease in the systolic blood pressure (conscious SH rats [4]; 50 mg/kg p.o.): -42%
- Inhibition of the stimulation [1]: 16.2%

SMILES: O=c1ccc(-n2cccc2)nn1CCCNCCOc1ccccc1 [Example 6]
- Mean arterial pressure decrease (anaesthetized cats; 5.0 mg/kg i.v.): -35 Hgmm

SMILES: O=c1ccc(Cl)nn1CCCNCCSc1ccccc1 [Example 7]
- Mean arterial pressure decrease (anaesthetized cats; 5.0 mg/kg i.v.): -35 Hgmm

SMILES: O=c1ccc(Cl)nn1CCCNCCOc1ccccc1Cl [Example 8]
- inhibition of the pressor effect of epinephrine (in words) [5]: significant inhibition
- Mean arterial pressure decrease (anaesthetized cats; 5.0 mg/kg i.v.): -80 Hgmm
- blood pressure lowering action (in words) (anaesthetized cats): particularly expressed
- Decrease in the systolic blood pressure (conscious SH rats [4]; 50 mg/kg p.o.): -18%

SMILES: O=c1cccnn1CCCNCCCOc1ccccc1 [Example 9]
- Mean arterial pressure decrease (anaesthetized cats; 5.0 mg/kg i.v.): -55 Hgmm

SMILES: O=c1cccnn1CCCNCCOc1ccccc1F [Example 10]
- inhibition of the pressor effect of epinephrine (in words) [5]: significant inhibition
- Mean arterial pressure decrease (anaesthetized cats; 5.0 mg/kg i.v.): -60 Hgmm
- Decrease in the systolic blood pressure (conscious SH rats [4]; 50 mg/kg p.o.): -25%

SMILES: O=c1cccnn1CCNCCOc1ccccc1 [Example 21]
- Mean arterial pressure decrease (anaesthetized cats; 5.0 mg/kg i.v.): -60 Hgmm

SMILES: CCOC(=O)N1CCN(c2ccc(=O)n(CCNCCOc3ccccc3)n2)CC1 [Example 22]
- Mean arterial pressure decrease (anaesthetized cats; 5.0 mg/kg i.v.): -35 Hgmm

SMILES: Cc1cc(C)n(-c2ccc(=O)n(CCNCCOc3ccccc3)n2)n1 [Example 23]
- Mean arterial pressure decrease (anaesthetized cats; 5.0 mg/kg i.v.): -65 Hgmm

SMILES: O=c1cccnn1CCNCC1COc2ccccc2O1 (centres unmarked) [Example 27]
- Mean arterial pressure decrease (anaesthetized cats; 5.0 mg/kg i.v.): -30 Hgmm

SMILES: O=c1ccc(N2CCOCC2)nn1CCNCCOc1ccccc1 [Example 28]
- Mean arterial pressure decrease (anaesthetized cats; 5.0 mg/kg i.v.): -50 Hgmm

SMILES: COC(=O)C1=C(C)NC(C)=C(C(=O)OC)C1c1ccccc1[N+](=O)[O-] [Nifedipine, 2,6-dimethyl-4-(2-nitrophenyl)-1,4-dihydropyridine-3,5-dicarboxylic acid dimethyl ester, reference compound]
- IC50 [2]: 2 µM

SMILES: COc1cc2nc(N3CCN(C(=O)c4ccco4)CC3)nc(N)c2cc1OC.Cl [Prazosine, 1-(4-amino-6,7-dimethoxy-2-quinazolinyl)-4-(2-furylcarbonyl)-piperazine hydrochloride, reference compound]
- hypotensive action relative to same intraduodenal dose of compound of Example 3 (or 12) (anaesthetized dogs; prazosine 1 mg/kg intraduodenal): only the half
- antihypertensive effect in the 5th hour (conscious SH rats [6]; 1.25 mg/kg p.o., 5th hour): 26%
- hypotension [7]: 26%
- hypotension in the 5th hour ([7]; 5th hour): 20%
- IC50 [2]: 0.009 µM
- pA2 ([8]; negative logarithm of the molar antagonist concentration inhibiting the agonist to 50%, norepinephrine agonist, 5 min): 9.45
- Slope of the curve ([8]; rabbit aorta, norepinephrine): -0.96
- IC50 [3]: 500 µM
- decrease in resistance of the renal artery (renal artery): about 40%

SMILES: COc1ccc(CCN(C)CCCC(C#N)(c2ccc(OC)c(OC)c2)C(C)C)cc1OC (centres unmarked) [Verapamil, reference compound]
- hypotension (anaesthetized dogs; 10 mg/kg intraduodenal): 30%
- time of maximum effect (anaesthetized dogs; 10 mg/kg intraduodenal): 30 min
- antihypertensive effect (conscious SH rats [6]; 50 mg/kg p.o.): 30%
- IC50 [2]: 1 µM
